Experimental data: patent publication US12187723B2 (BRISTOL-MYERS SQUIBB COMPANY, priority 2019, dated 2025)
pIC50: −log10 of the molar value.

molecular target: T1, human TLR7 (Homo sapiens, UniProt Q9NYK1); test: TLR7 inhibition reporter assay (HEK-Blue SEAP); assay type: cell-based; conditions: HEK-Blue cells overexpressing human TLR7, gardiquimod 7.5 μM, 22 hour incubation
T1 construct: host or cells: HEK-Blue cells
T1 sequence (Q9NYK1 27-1049): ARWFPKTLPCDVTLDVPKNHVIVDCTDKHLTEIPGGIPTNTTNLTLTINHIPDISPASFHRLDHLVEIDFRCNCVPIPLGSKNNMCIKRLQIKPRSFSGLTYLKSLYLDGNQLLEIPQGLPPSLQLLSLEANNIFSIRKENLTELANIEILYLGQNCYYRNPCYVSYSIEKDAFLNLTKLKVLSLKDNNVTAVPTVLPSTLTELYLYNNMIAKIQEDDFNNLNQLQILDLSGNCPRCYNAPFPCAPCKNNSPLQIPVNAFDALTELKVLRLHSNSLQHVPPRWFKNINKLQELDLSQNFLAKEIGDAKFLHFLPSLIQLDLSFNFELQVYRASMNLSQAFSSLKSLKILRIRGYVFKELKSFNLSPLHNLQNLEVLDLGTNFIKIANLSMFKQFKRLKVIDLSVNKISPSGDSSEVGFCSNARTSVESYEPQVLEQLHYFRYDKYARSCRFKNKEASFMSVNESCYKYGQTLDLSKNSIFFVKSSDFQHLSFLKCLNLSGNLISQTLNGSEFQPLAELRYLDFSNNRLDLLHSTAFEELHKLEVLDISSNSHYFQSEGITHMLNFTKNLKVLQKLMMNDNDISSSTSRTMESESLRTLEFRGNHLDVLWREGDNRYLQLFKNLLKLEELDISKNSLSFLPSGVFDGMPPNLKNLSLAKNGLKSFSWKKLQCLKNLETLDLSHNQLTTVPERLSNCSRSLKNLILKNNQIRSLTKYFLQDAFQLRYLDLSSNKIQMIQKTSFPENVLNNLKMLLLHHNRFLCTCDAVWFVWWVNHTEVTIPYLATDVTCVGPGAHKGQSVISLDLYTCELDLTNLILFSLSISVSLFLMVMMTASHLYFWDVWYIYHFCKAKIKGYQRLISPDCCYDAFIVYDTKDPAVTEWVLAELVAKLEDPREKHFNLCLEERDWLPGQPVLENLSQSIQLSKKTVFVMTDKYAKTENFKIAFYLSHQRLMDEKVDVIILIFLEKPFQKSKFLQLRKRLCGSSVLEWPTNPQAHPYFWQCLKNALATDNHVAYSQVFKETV
How it was run: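 SEAP readout via HEK-Blue Detection medium after 22 h at 37 °C, 5% CO2 defines inhibition, normalized between agonist-plus-DMSO wells and a reference inhibitor. Compound dose range 0.05 nM–50 μM; TLR7 cells at 15,000/well (gardiquimod), TLR8 at 20,000/well (R848).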

SMILES	pIC50
COc1cc(-c2cc3[nH]c(=O)n(C4CCN(CC5CCOC5)CC4)c3cc2C(C)C)cn2ncnc12 (stereo not drawn) [Example 160, 6-isopropyl-5-(8-methoxy-[1,2,4]triazolo[1,5-a]pyridin-6-yl)-1-(1-((tetrahydrofuran-3-yl)methyl)piperidin-4-yl)-1,3-dihydro-2H-benzo[d]imidazol-2-one]	8.06
COc1cc(-c2cc3[nH]c(=O)n(C4CCN(CC5CC5)CC4)c3cc2C(C)C)cn2ncnc12 [Example 161, 1-(1-(cyclopropylmethyl)piperidin-4-yl)-6-isopropyl-5-(8-methoxy-[1,2,4]triazolo[1,5-a]pyridin-6-yl)-1,3-dihydro-2H-benzo[d]imidazol-2-one]	8.14
COc1cc(-c2cc3[nH]c(=O)n(C4CCN(C5CCOC5)CC4)c3cc2C(C)C)cn2ncnc12 (stereo not drawn) [Example 162, 6-isopropyl-5-(8-methoxy-[1,2,4]triazolo[1,5-a]pyridin-6-yl)-1-(1-(tetrahydrofuran-3-yl)piperidin-4-yl)-1,3-dihydro-2H-benzo[d]imidazol-2-one]	7.14
COc1cc(-c2cc3[nH]c(=O)n(C4CCN(C(C)C)CC4)c3cc2C(C)C)cn2ncnc12 [Example 163, 6-isopropyl-1-(1-isopropylpiperidin-4-yl)-5-(8-methoxy-[1,2,4]triazolo[1,5-a]pyridin-6-yl)-1,3-dihydro-2H-benzo[d]imidazol-2-one]	8.13
COc1cc(-c2cc3[nH]c(=O)n(C4CCN(CC(C)C)CC4)c3cc2C(C)C)cn2ncnc12 [Example 164, 1-(1-isobutylpiperidin-4-yl)-6-isopropyl-5-(8-methoxy-[1,2,4]triazolo[1,5-a]pyridin-6-yl)-1,3-dihydro-2H-benzo[d]imidazol-2-one]	7.91

Now from value to compound:

pIC50	SMILES
7.96	CCC(CC)CN1CCC(n2c(=O)[nH]c3cc(-c4cc(OC)c5ncnn5c4)c(C(C)C)cc32)CC1 [Example 165, 1-(1-(2-ethylbutyl)piperidin-4-yl)-6-isopropyl-5-(8-methoxy-[1,2,4]triazolo[1,5-a]pyridin-6-yl)-1,3-dihydro-2H-benzo[d]imidazol-2-one]
8.72	CCc1cc2c(cc1-c1cc(OC)c3ncnn3c1)[nH]c(=O)n2[C@H]1CC[C@@H](NC2CCOCC2)CC1 [Example 166, 6-ethyl-5-(8-methoxy-[1,2,4]triazolo[1,5-a]pyridin-6-yl)-1-((1s,4s)-4-((tetrahydro-2H-pyran-4-yl)amino)cyclohexyl)-1,3-dihydro-2H-benzo[d]imidazol-2-one]
8.51	CCc1cc2c(cc1-c1cc(OC)c3ncnn3c1)[nH]c(=O)n2[C@H]1CC[C@@H](NC(C)C)CC1 [Example 167, 6-ethyl-1-((1s,4s)-4-(isopropylamino)cyclohexyl)-5-(8-methoxy-[1,2,4]triazolo[1,5-a]pyridin-6-yl)-1,3-dihydro-2H-benzo[d]imidazol-2-one]
8.26	CCCN(CCC)[C@H]1CC[C@@H](n2c(=O)[nH]c3cc(-c4cc(OC)c5ncnn5c4)c(CC)cc32)CC1 [Example 168, 1-((1s,4s)-4-(dipropylamino)cyclohexyl)-6-ethyl-5-(8-methoxy-[1,2,4]triazolo[1,5-a]pyridin-6-yl)-1,3-dihydro-2H-benzo[d]imidazol-2-one]
